ChEMBL document CHEMBL1201862, “PubChem BioAssay data set” (2004)
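96-well plates; 48 h exposure; 5 concentrations. Endpoints by linear interpolation between flanking doses. Not reached: highest tested concentration assigned. The concentration for 50% growth inhibition is given as GI50.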 Calls of active or inactive are those of the source. Rule as the data show it: active = GI50 up to about 1.1 µM and inactive = higher.

What was measured:
Test in all cases: inhibition of tumour cell growth, NCI panel, 48 h
[1] = tested on: 786-0
[2] = tested on: A498
[3] = tested on: A549
[4] = tested on: ACHN
[5] = tested on: BT-549
[6] = tested on: CAKI-1
[7] = tested on: CCRF-CEM
[8] = tested on: COLO 205
[9] = tested on: DU-145
[10] = tested on: EKVX
[11] = tested on: HCT-116
[12] = tested on: HCT-15
[13] = tested on: HL-60
[14] = tested on: HOP-62
[15] = tested on: HOP-92
[16] = tested on: HT-29
[17] = tested on: Hs-578T
[18] = tested on: IGROV-1
[19] = tested on: K562
[20] = tested on: KM12
[21] = tested on: LOX IMVI
[22] = tested on: M14
[23] = tested on: MCF7
[24] = tested on: MDA-MB-231
[25] = tested on: MDA-MB-435
[26] = tested on: MDA-N
[27] = tested on: Malme-3M
[28] = tested on: NCI-H226
[29] = tested on: NCI-H23
[30] = tested on: NCI-H460
[31] = tested on: NCI-H522
[32] = tested on: NCI/ADR-RES
[33] = tested on: OVCAR-3
[34] = tested on: OVCAR-4
[35] = tested on: OVCAR-5
[36] = tested on: OVCAR-8
[37] = tested on: PC-3
[38] = tested on: RPMI-8226
[39] = tested on: RXF 393
[40] = tested on: SF-268
[41] = tested on: SF-295
[42] = tested on: SF-539
[43] = tested on: SK-MEL-28
[44] = tested on: SK-MEL-2
[45] = tested on: SK-MEL-5
[46] = tested on: SK-OV-3
[47] = tested on: SN12C
[48] = tested on: SNB-19
[49] = tested on: SNB-75
[50] = tested on: SR
[51] = tested on: SW-620
[52] = tested on: T47D
[53] = tested on: TK-10
[54] = tested on: U-251
[55] = tested on: UACC-257
[56] = tested on: UACC-62
[57] = tested on: UO-31
[58] = tested on: HCC 2998
[59] = tested on: MOLT-4

CC(C)N(Cc1ccccc1)S(=O)(=O)c1nc(C(C)(C)C)n[nH]1
GI50 [1]: > 100 µM (inactive) | GI50 [2]: > 100 µM (inactive) | GI50 [3]: > 100 µM (inactive) | GI50 [4]: > 100 µM (inactive) | GI50 [5]: > 100 µM (inactive) | GI50 [6]: > 100 µM (inactive) | GI50 [7]: > 100 µM (inactive) | GI50 [8]: > 100 µM (inactive) | GI50 [9]: > 100 µM (inactive) | GI50 [10]: > 100 µM (inactive) | GI50 [11]: > 100 µM (inactive) | GI50 [12]: > 100 µM | GI50 [13]: 46.1 µM (inactive) | GI50 [14]: > 100 µM (inactive) | GI50 [15]: > 100 µM (inactive) | GI50 [16]: > 100 µM (inactive) | GI50 [17]: > 100 µM (inactive) | GI50 [18]: > 100 µM (inactive) | GI50 [19]: > 100 µM (inactive) | GI50 [20]: > 100 µM (inactive) | GI50 [21]: > 100 µM (inactive) | GI50 [22]: > 100 µM (inactive) | GI50 [23]: > 100 µM (inactive) | GI50 [24]: > 100 µM (inactive) | GI50 [25]: > 100 µM (inactive) | GI50 [26]: > 100 µM (inactive) | GI50 [27]: > 100 µM (inactive) | GI50 [28]: > 100 µM (inactive) | GI50 [29]: > 100 µM (inactive) | GI50 [30]: > 100 µM (inactive) | GI50 [31]: > 100 µM (inactive) | GI50 [32]: > 100 µM (inactive) | GI50 [33]: > 100 µM (inactive) | GI50 [34]: > 100 µM (inactive) | GI50 [35]: > 100 µM (inactive) | GI50 [36]: > 100 µM (inactive) | GI50 [37]: > 100 µM (inactive) | GI50 [38]: > 100 µM (inactive) | GI50 [39]: > 100 µM (inactive) | GI50 [40]: > 100 µM (inactive) | GI50 [41]: > 100 µM (inactive) | GI50 [42]: > 100 µM (inactive) | GI50 [43]: > 100 µM (inactive) | GI50 [44]: > 100 µM (inactive) | GI50 [45]: > 100 µM (inactive) | GI50 [46]: > 100 µM (inactive) | GI50 [47]: > 100 µM (inactive) | GI50 [48]: > 100 µM (inactive) | GI50 [49]: > 100 µM (inactive) | GI50 [50]: > 100 µM (inactive) | GI50 [51]: > 100 µM (inactive) | GI50 [52]: 92 µM (inactive) | GI50 [53]: > 100 µM (inactive) | GI50 [54]: > 100 µM (inactive) | GI50 [55]: 44.9 µM (inactive) | GI50 [56]: > 100 µM (inactive) | GI50 [57]: > 100 µM (inactive)

N#Cc1ccc(Nc2nc3[nH]cnc3c(=O)[nH]2)cc1
GI50 [1]: > 100 µM (inactive) | GI50 [2]: > 100 µM (inactive) | GI50 [3]: > 100 µM (inactive) | GI50 [4]: > 100 µM (inactive) | GI50 [5]: > 100 µM (inactive) | GI50 [6]: > 100 µM (inactive) | GI50 [7]: > 100 µM (inactive) | GI50 [8]: > 100 µM (inactive) | GI50 [9]: > 100 µM (inactive) | GI50 [10]: > 100 µM (inactive) | GI50 [58]: > 100 µM (inactive) | GI50 [11]: > 100 µM (inactive) | GI50 [12]: > 100 µM | GI50 [13]: > 100 µM (inactive) | GI50 [14]: > 100 µM (inactive) | GI50 [15]: > 100 µM (inactive) | GI50 [16]: > 100 µM (inactive) | GI50 [17]: > 100 µM (inactive) | GI50 [18]: > 100 µM (inactive) | GI50 [20]: > 100 µM (inactive) | GI50 [21]: > 100 µM (inactive) | GI50 [22]: > 100 µM (inactive) | GI50 [23]: > 100 µM (inactive) | GI50 [24]: > 100 µM (inactive) | GI50 [25]: > 100 µM (inactive) | GI50 [26]: > 100 µM (inactive) | GI50 [59]: > 100 µM (inactive) | GI50 [27]: > 100 µM (inactive) | GI50 [28]: > 100 µM (inactive) | GI50 [29]: > 100 µM (inactive) | GI50 [30]: > 100 µM (inactive) | GI50 [31]: > 100 µM (inactive) | GI50 [32]: > 100 µM (inactive) | GI50 [33]: > 100 µM (inactive) | GI50 [34]: > 100 µM (inactive) | GI50 [35]: > 100 µM (inactive) | GI50 [36]: > 100 µM (inactive) | GI50 [37]: > 100 µM (inactive) | GI50 [38]: > 100 µM (inactive) | GI50 [40]: > 100 µM (inactive) | GI50 [41]: > 100 µM (inactive) | GI50 [42]: > 100 µM (inactive) | GI50 [43]: > 100 µM (inactive) | GI50 [44]: > 100 µM (inactive) | GI50 [45]: > 100 µM (inactive) | GI50 [46]: > 100 µM (inactive) | GI50 [47]: > 100 µM (inactive) | GI50 [48]: > 100 µM (inactive) | GI50 [49]: > 100 µM (inactive) | GI50 [50]: > 100 µM (inactive) | GI50 [51]: > 100 µM (inactive) | GI50 [52]: > 100 µM (inactive) | GI50 [53]: > 100 µM (inactive) | GI50 [54]: > 100 µM (inactive) | GI50 [55]: > 100 µM (inactive) | GI50 [56]: > 100 µM (inactive) | GI50 [57]: > 100 µM (inactive)

C=CCN1C[C@H](C)N([C@H](c2ccc(C(=O)N(CC)CC)cc2)c2cccc(OC)c2)C[C@H]1C [SNC-80]
GI50 [1]: > 100 µM (inactive) | GI50 [2]: 13 µM (inactive) | GI50 [3]: 54.3 µM (inactive) | GI50 [4]: 35.6 µM (inactive) | GI50 [5]: 41.1 µM (inactive) | GI50 [6]: > 100 µM (inactive) | GI50 [8]: 16.8 µM (inactive) | GI50 [9]: > 100 µM (inactive) | GI50 [10]: > 100 µM (inactive) | GI50 [11]: 42.7 µM (inactive) | GI50 [12]: 70.3 µM | GI50 [13]: 24.8 µM (inactive) | GI50 [14]: 74.1 µM (inactive) | GI50 [15]: 5.11 µM (inactive) | GI50 [16]: 27.5 µM (inactive) | GI50 [17]: 26 µM (inactive) | GI50 [18]: 35.2 µM (inactive) | GI50 [20]: 50.8 µM (inactive) | GI50 [22]: 33.7 µM (inactive) | GI50 [23]: 39.1 µM (inactive) | GI50 [24]: 77.8 µM (inactive) | GI50 [25]: 34.7 µM (inactive) | GI50 [26]: 53.1 µM (inactive) | GI50 [59]: 27.9 µM (inactive) | GI50 [27]: 16.7 µM (inactive) | GI50 [28]: 21.4 µM (inactive) | GI50 [29]: 32.7 µM (inactive) | GI50 [31]: 36.3 µM (inactive) | GI50 [32]: 39.4 µM (inactive) | GI50 [33]: 18.3 µM (inactive) | GI50 [34]: 73.8 µM (inactive) | GI50 [35]: > 100 µM (inactive) | GI50 [36]: > 100 µM (inactive) | GI50 [37]: 31.8 µM (inactive) | GI50 [38]: 29.1 µM (inactive) | GI50 [40]: 86.5 µM (inactive) | GI50 [41]: 19.9 µM (inactive) | GI50 [42]: 51.5 µM (inactive) | GI50 [43]: 69.3 µM (inactive) | GI50 [44]: > 100 µM (inactive) | GI50 [45]: 14 µM (inactive) | GI50 [46]: 75.2 µM (inactive) | GI50 [47]: 64.1 µM (inactive) | GI50 [48]: > 100 µM (inactive) | GI50 [50]: 39.5 µM (inactive) | GI50 [51]: 44.6 µM (inactive) | GI50 [52]: 17 µM (inactive) | GI50 [53]: 48 µM (inactive) | GI50 [54]: 44.9 µM (inactive) | GI50 [55]: 19.5 µM (inactive) | GI50 [56]: 34.1 µM (inactive) | GI50 [57]: 62.2 µM (inactive)
